ChEMBL document CHEMBL5252611, “2- and 3-Fluoro-3-deaza-1',6'-isoneplanocin: Synthesis and antiviral properties (including Ebola and Marburg)” (Bioorg Med Chem Lett, 2023)
Activity calls are given as the source filed them. The calls are words filed in the database; no cut-off is given here.

Legend:
[1] = Cytotoxicity against African green monkey Vero 76 cells infected with Measles virus CC by neutral red dye based analysis; format: toxicity, cell-based; details: chlorocebus sabaeus
[2] = Selectivity index, ratio of CC50 for cytotoxicity against African green monkey Vero 76 cells by neutral red dye based analysis to EC50 for antiviral activity against Measles virus CC infected in African green monkey Vero 76 cells by neutral red dye based analysis; format: toxicity, cell-based; details: read-out: Ratio CC50/EC50
Measles morbillivirus [3] = assay: Antiviral activity against Measles virus CC infected in African green monkey Vero 76 cells by neutral red dye based analysis; format: functional, organism-based
[4] = Selectivity index, ratio of CC50 for cytotoxicity against African green monkey Vero 76 cells infected with Measles virus CC by visual analysis to EC50 for antiviral activity against Measles virus CC infected in African green monkey Vero 76 cells by visual analysis; format: toxicity, cell-based; details: read-out: Ratio CC50/EC50
Measles morbillivirus [5] = assay: Antiviral activity against Measles virus CC infected in African green monkey Vero 76 cells by visual analysis; format: functional, organism-based
[6] = Cytotoxicity against African green monkey Vero 76 cells infected with Measles virus CC by visual analysis; format: toxicity, cell-based; details: chlorocebus sabaeus
[7] = Cytotoxicity against African green monkey Vero cells infected with Marburgvirus Angola; format: toxicity, cell-based; details: chlorocebus sabaeus
Zaire ebolavirus = assay: Antiviral activity against Zaire ebolavirus infected in African green monkey Vero cells; format: functional, organism-based
[8] = Selectivity index, ratio of CC50 for cytotoxicity against African green monkey Vero cells infected with Zaire ebolavirus to EC50 for antiviral activity against Zaire ebolavirus infected in African green monkey Vero cells; format: toxicity, cell-based; details: read-out: Ratio CC50/EC50
[9] = Cytotoxicity against African green monkey Vero cells infected with Zaire ebolavirus; format: toxicity, cell-based; details: chlorocebus sabaeus
Marburgvirus = assay: Antiviral activity against Marburgvirus Angola infected in African green monkey Vero cells; format: functional, organism-based; details: Orthomarburgvirus
[10] = Selectivity index, ratio of CC50 for cytotoxicity against African green monkey Vero cells infected with Marburgvirus Angola to EC50 for antiviral activity against Marburgvirus Angola infected in African green monkey Vero cells; format: toxicity, cell-based; details: read-out: Ratio CC50/EC50
Human betaherpesvirus 5 [11] = assay: Antiviral activity against Human betaherpesvirus 5; format: functional, organism-based
Measles morbillivirus [12] = assay: Antiviral activity against Measles virus; format: functional, organism-based
Yellow fever virus [13] = assay: Antiviral activity against Yellow fever virus; format: functional, organism-based
Hepatitis B virus [14] = assay: Antiviral activity against HBV; format: functional, organism-based
[15] = Cytotoxicity against African green monkey Vero cells infected in Pichinde virus AN 4763 by visual analysis; format: toxicity, cell-based; details: chlorocebus sabaeus, Vero cells infected with Pichinde virus AN 4763
Pichinde virus [16] = assay: Antiviral activity against Pichinde virus AN 4763 infected in African green monkey Vero cells by visual analysis; format: functional, organism-based; details: AN 4763, Vero
Rift Valley fever virus [17] = assay: Antiviral activity against Rift Valley fever virus MP-12 infected in African green monkey Vero 76 cells; format: functional, organism-based
dengue virus type 2 = assay: Antiviral activity against Dengue virus 2 New Guinea infected in human Huh-7 cells; format: functional, organism-based
Tacaribe virus [18] = assay: Antiviral activity against Tacaribe virus TRVL11573 infected in African green monkey Vero cells; format: functional, organism-based; details: Mammarenavirus tacaribeense
Pichinde virus [19] = assay: Antiviral activity against Pichinde virus AN 4763 infected in African green monkey Vero cells by neutral red dye based analysis; format: functional, organism-based; details: AN 4763, Vero
[20] = Selectivity index, ratio of CC50 for cytotoxicity against human HepG2.2.15 cells to EC50 for antiviral activity against HBV ayw1 infected in human HepG2.2.15 cells; format: toxicity, cell-based; details: read-out: Ratio CC50/EC50
[21] = test system: Venezuelan equine encephalitis virus; assay: Antiviral activity against Venezuelan equine encephalitis virus TC-83 infected in African green monkey Vero 76 cells; format: functional, organism-based
Lassa virus = assay: Antiviral activity against Lassa virus Josiah infected in African green monkey Vero cells; format: functional, organism-based; details: Mammarenavirus lassaense
[22] = Selectivity index, ratio of CC50 for cytotoxicity against African green monkey Vero cells infected with Pichinde virus AN 4763 by visual analysis to EC50 for antiviral activity against Pichinde virus AN 4763 infected in African green monkey Vero cells by visual analysis; format: toxicity, cell-based; details: read-out: Ratio CC50/EC50
[23] = Selectivity index, ratio of CC50 for cytotoxicity against African green monkey Vero cells infected with Pichinde virus AN 4763 by neutral red dye based analysis to EC50 for antiviral activity against Pichinde virus AN 4763 infected in African green monkey Vero cells by neutral red dye based analysis; format: toxicity, cell-based; details: read-out: Ratio CC50/EC50
[24] = Cytotoxicity against African green monkey Vero cells infected with Tacaribe virus TRVL11573 by neutral red dye based analysis; format: toxicity, cell-based; details: chlorocebus sabaeus
[25] = Cytotoxicity against African green monkey Vero cells infected in Pichinde virus AN 4763 by neutral red dye based analysis; format: toxicity, cell-based; details: chlorocebus sabaeus, Vero cells infected with Pichinde virus AN 4763
Chikungunya virus = assay: Antiviral activity against Chikungunya virus S27 infected in African green monkey Vero 76 cells; format: functional, organism-based
Rift Valley fever virus [26] = assay: Antiviral activity against Rift Valley fever virus MP-12 infected in African green monkey Vero 76 cells by neutral red dye based analysis; format: functional, organism-based; details: MP-12, Vero 76
Rift Valley fever virus [27] = assay: Antiviral activity against Rift Valley fever virus MP-12 infected in African green monkey Vero 76 cells by visual analysis; format: functional, organism-based; details: MP-12, Vero 76
[28] = Selectivity index, ratio of CC50 for cytotoxicity against African green monkey Vero 76 cells infected with Rift Valley fever virus MP-12 by visual analysis to EC50 for antiviral activity against Rift Valley fever virus MP-12 infected in African green monkey Vero 76 cells by visual analysis; format: toxicity, cell-based; details: read-out: Ratio CC50/EC50
[29] = Selectivity index, ratio of CC50 for cytotoxicity against African green monkey Vero cells infected with Tacaribe virus TRVL11573 by neutral red dye based analysis to EC50 for antiviral activity against Tacaribe virus TRVL11573 infected in African green monkey Vero cells by neutral red dye based analysis; format: toxicity, cell-based; details: read-out: Ratio CC50/EC50
Tacaribe virus [30] = assay: Antiviral activity against Tacaribe virus TRVL11573 infected in African green monkey Vero cells by visual analysis; format: functional, organism-based; details: Mammarenavirus tacaribeense
[31] = Cytotoxicity against human HepG2.2.15 cells; format: toxicity, cell-based, HepG2 2.2.15
Punta Toro virus = assay: Antiviral activity against Punta Toro virus Adames infected in African green monkey Vero 76 cells; format: functional, organism-based
Hepatitis B virus [32] = assay: Antiviral activity against HBV ayw1 infected in human HepG2.2.15 cells; format: functional, organism-based; details: ayw1, HepG2.2.15
[33] = Cytotoxicity against African green monkey Vero 76 cells infected with Rift Valley fever virus MP-12 by visual analysis; format: toxicity, cell-based; details: chlorocebus sabaeus
[34] = Cytotoxicity against African green monkey Vero cells infected with Tacaribe virus TRVL11573 by visual analysis; format: toxicity, cell-based; details: chlorocebus sabaeus
Tacaribe virus [35] = assay: Antiviral activity against Tacaribe virus TRVL11573 infected in African green monkey Vero cells by neutral red dye based analysis; format: functional, organism-based; details: Mammarenavirus tacaribeense
[36] = Selectivity index, ratio of CC50 for cytotoxicity against African green monkey Vero 76 cells infected with Rift Valley fever virus MP-12 by neutral red dye based analysis to EC50 for antiviral activity against Rift Valley fever virus MP-12 infected in African green monkey Vero 76 cells by neutral red dye based analysis; format: toxicity, cell-based; details: read-out: Ratio CC50/EC50
[37] = Cytotoxicity against African green monkey Vero 76 cells infected with Rift Valley fever virus MP-12 by neutral red dye based analysis; format: toxicity, cell-based; details: chlorocebus sabaeus
Human betaherpesvirus 5 [38] = assay: Antiviral activity against Human betaherpesvirus 5 AD 169 infected in HFF cells; format: functional, organism-based
[39] = Selectivity index, ratio of CC50 for cytotoxicity against African green monkey Vero cells infected with Tacaribe virus TRVL11573 by visual analysis to EC50 for antiviral activity against Tacaribe virus TRVL11573 infected in African green monkey Vero cells by visual analysis; format: toxicity, cell-based; details: read-out: Ratio CC50/EC50
[40] = test system: Middle East respiratory syndrome-related coronavirus; assay: Antiviral activity against Middle East respiratory syndrome-related coronavirus EMC infected in African green monkey Vero 76 cells; format: functional, organism-based
[41] = test system: Japanese encephalitis virus; assay: Antiviral activity against Japanese encephalitis virus SA 14 infected in African green monkey Vero 76 cells; format: functional, organism-based
Norovirus = assay: Antiviral activity against Norovirus Genogroup 1 infected in human HG23 cells; format: functional, organism-based; details: Genogroup 1, HG23
[42] = Cytotoxicity against MDCK cells infected with influenza A virus California/7/2009(H1N1); format: toxicity, cell-based, Canis lupus familiaris; details: dog
Enterovirus A71 = assay: Antiviral activity against Human enterovirus 71 Tainan/4643/98 infected in African green monkey Vero 76 cells; format: functional, organism-based
Influenza A virus = assay: Antiviral activity against influenza A virus California/7/2009(H1N1) infected in MDCK cells; format: functional, organism-based
Yellow fever virus [43] = assay: Antiviral activity against Yellow fever virus YFV 17D infected in human Huh-7 cells; format: functional, organism-based
Poliovirus 1 = assay: Antiviral activity against Human poliovirus 1 Mahoney infected in African green monkey Vero 76 cells; format: functional, organism-based
[44] = Selectivity index, ratio of CC50 for cytotoxicity against MDCK cells infected with influenza A virus California/7/2009(H1N1) to EC50 for antiviral activity against influenza A virus California/7/2009(H1N1) infected in MDCK cells; format: toxicity, cell-based; details: dog; read-out: Ratio CC50/EC50
[45] = Cytotoxicity against human HG23 cells infected with Norovirus Genogroup 1; format: toxicity, cell-based
West Nile virus = assay: Antiviral activity against West Nile virus Kern 515 infected in African green monkey Vero 76 cells; format: functional, organism-based
[46] = Selectivity index, ratio of CC50 for cytotoxicity against human HG23 cells infected with Norovirus Genogroup 1 to EC50 for antiviral activity against Norovirus Genogroup 1 infected in human HG23 cells; format: toxicity, cell-based; details: read-out: Ratio CC50/EC50

Nc1ccn([C@@H]2O[C@H](CO)[C@@H](O)[C@H]2F)c(=O)n1
CC50 [1]: 249 µM
selectivity ratio [2]: 69
EC50 (Measles morbillivirus [3]): 3.59 µM
selectivity ratio [4]: 121
EC50 (Measles morbillivirus [5]): 2.28 µM
CC50 [6]: 277 µM

NC(=O)c1nc(F)cnc1O [FAVIPIRAVIR]
CC50 [7]: > 1000 µM
EC50 (Zaire ebolavirus): 24 µM
selectivity ratio [8]: > 43
CC50 [9]: > 1000 µM
EC50 (Marburgvirus): 167 µM
selectivity ratio [10]: > 6

Nc1ncc(F)c2c1ncn2[C@@H]1C=C(CO)[C@@H](O)[C@H]1O
Activity (Human betaherpesvirus 5 [11]): Active
Activity (Measles morbillivirus [12]): Active
Activity (Yellow fever virus [13]): Active
Activity (Hepatitis B virus [14]): Active

Nc1nc(F)cc2c1ncn2C1=C[C@H](CO)[C@@H](O)[C@H]1O
CC50 [1]: 36 µM
CC50 [15]: 46 µM
EC50 (Pichinde virus [16]): 3.32 µM
Activity (Rift Valley fever virus [17]): inactive
Activity (dengue virus type 2): inactive
Activity (Tacaribe virus [18]): inactive
EC50 (Pichinde virus [19]): 2.57 µM
selectivity ratio [20]: 113
Activity [21]: inactive
Activity (Lassa virus): inactive
selectivity ratio [22]: 14
selectivity ratio [2]: 91
selectivity ratio [23]: 19
CC50 [24]: 50 µM
CC50 [25]: 50 µM
Activity (Chikungunya virus): inactive
EC50 (Rift Valley fever virus [26]): 33.2 µM
EC50 (Rift Valley fever virus [27]): 22.1 µM
EC50 (Measles morbillivirus [3]): 0.39 µM
selectivity ratio [28]: 5.2
selectivity ratio [29]: 5.8
EC50 (Tacaribe virus [30]): 10.7 µM
CC50 [31]: 48.2 µM
Activity (Punta Toro virus): inactive
EC50 (Hepatitis B virus [32]): 0.43 µM
CC50 [33]: 114 µM
CC50 [34]: 75 µM
selectivity ratio [4]: 320
EC50 (Tacaribe virus [35]): 8.6 µM
selectivity ratio [36]: 4
CC50 [37]: 132 µM
Activity (Human betaherpesvirus 5 [38]): inactive
selectivity ratio [39]: 7
Activity [40]: inactive
EC50 (Measles morbillivirus [5]): 0.36 µM
Activity [41]: inactive
CC50 [6]: 114 µM

Nc1ncc(F)c2c1ncn2C1=C[C@H](CO)[C@@H](O)[C@H]1O
EC50 (Norovirus): 0.64 µM
CC50 [42]: > 357 µM
CC50 [7]: > 100 µM
Activity (Enterovirus A71): Active
Activity (dengue virus type 2): inactive
EC50 (Zaire ebolavirus): < 0.1 µM
selectivity ratio [20]: > 2760
Activity [21]: Active
selectivity ratio [8]: > 538
EC50 (Influenza A virus): < 0.36 µM
Activity (Chikungunya virus): inactive
Activity (Yellow fever virus [43]): inactive
Activity (Poliovirus 1): Active
CC50 [9]: > 100 µM
EC50 (Marburgvirus): < 0.1 µM
selectivity ratio [44]: > 1000
CC50 [45]: > 357 µM
selectivity ratio [10]: > 1000
CC50 [31]: > 357 µM
Activity (Punta Toro virus): inactive
Activity (West Nile virus): inactive
EC50 (Hepatitis B virus [32]): 1.28 µM
Activity (Human betaherpesvirus 5 [38]): Active
Activity [41]: Active
selectivity ratio [46]: > 2760
